Assays:
[1] = tested on: Wild-type Landsberg seedlings; assay: taxol treatment of dark-grown wild-type seedlings; format: in vivo, Arabidopsis thaliana; conditions: 10 days in the dark
Excerpt: (§1) The role of ethylene in the reduction of hypocotyl and root elongation has not yet been elucidated. One possibility relates to the theory that cortical microtubules associated with the plasma membrane may direct the cellulose synthase complex that is responsible for cell wall deposition. The drug taxol acts to stabilize microtubules by inhibiting microtubule depolymerization (Schiff and Horwitz 1981) and may inhibit the shift in cortical microtubules upon ethylene treatment,(Heinstein and Chang 1994). To determine if taxol could affect the ethylene insensitivity phenotype of ein6/een mutants, wild-type and ein6/een mutants were given a 10 day taxol treatment in the dark (Example 12).
(§2) Wild-type Landsberg seedlings or ein6/een mutant seedlings were grown in the presence of either 0 μM, 0.1 μM, or 1 μM taxol for 10 days in the dark, following the method of Roman and Ecker (Phil. Trans. R. Soc. Lond. B. 350: 75–81, 1995, which is herein incorporated by reference in its entirety). […] Hypocotyl cells of the taxol-treated tissue appeared shorter and rounder than wild-type cells. […] From these observations, it has been concluded that the ein6/een double mutation, (or possibly the een single mutation) is responsible for the taxol sensitivity phenotype.

[2] = tested on: ein6/een mutant seedlings; assay: taxol treatment of dark-grown ein6/een double mutant seedlings; format: in vivo, Arabidopsis thaliana
Excerpt: as §1, §2

CC(=O)O[C@H]1C(=O)[C@@]2(C)[C@H]([C@H](OC(=O)c3ccccc3)[C@]3(O)C[C@H](OC(=O)[C@H](O)[C@@H](NC(=O)c4ccccc4)c4ccccc4)C(C)=C1C3(C)C)[C@]1(OC(C)=O)CO[C@@H]1C[C@@H]2O [taxol]
seedling size compared to untreated seedlings ([1]; 0.1 μM taxol): did not have an altered size | effect on seedling elongation ([1]; 1 μM taxol): inhibition of elongation | seedling phenotype (length) ([2]; 0.1 μM taxol, 10 days in the dark): shortened phenotype | seedling length compared to non-treated ein6/een mutant seedlings ([2]; 1 μM taxol, 10 days in the dark): significantly shorter | sensitivity of mutants to taxol ([2]; low levels (0.1 μM) of taxol, 10 day treatment in the dark): especially sensitive

Reference: US7220587B2 (priority 2001, dated 2007)
